Series [1] deals with T1, TGF-beta receptor type-1 (Homo sapiens, UniProt P36897).
T1 sequence (P36897 whole entry): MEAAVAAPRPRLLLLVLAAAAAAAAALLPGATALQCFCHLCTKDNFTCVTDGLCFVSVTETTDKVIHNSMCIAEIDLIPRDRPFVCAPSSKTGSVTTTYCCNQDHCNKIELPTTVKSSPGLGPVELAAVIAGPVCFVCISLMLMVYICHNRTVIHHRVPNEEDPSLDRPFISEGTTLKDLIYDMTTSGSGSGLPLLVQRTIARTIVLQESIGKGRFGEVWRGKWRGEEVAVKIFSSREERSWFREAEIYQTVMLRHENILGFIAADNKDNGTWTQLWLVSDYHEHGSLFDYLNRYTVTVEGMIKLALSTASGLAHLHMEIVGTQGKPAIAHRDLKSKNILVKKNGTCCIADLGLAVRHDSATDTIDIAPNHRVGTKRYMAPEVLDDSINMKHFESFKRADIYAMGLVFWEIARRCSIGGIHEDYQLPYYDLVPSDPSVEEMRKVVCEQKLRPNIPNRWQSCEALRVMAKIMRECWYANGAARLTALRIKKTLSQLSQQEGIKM
Kind of series: Inhibition of ALK5.

The target of series [2] is T2, TGF-beta receptor type-1 (Mus musculus, UniProt Q64729).
T2 sequence (Q64729 whole entry): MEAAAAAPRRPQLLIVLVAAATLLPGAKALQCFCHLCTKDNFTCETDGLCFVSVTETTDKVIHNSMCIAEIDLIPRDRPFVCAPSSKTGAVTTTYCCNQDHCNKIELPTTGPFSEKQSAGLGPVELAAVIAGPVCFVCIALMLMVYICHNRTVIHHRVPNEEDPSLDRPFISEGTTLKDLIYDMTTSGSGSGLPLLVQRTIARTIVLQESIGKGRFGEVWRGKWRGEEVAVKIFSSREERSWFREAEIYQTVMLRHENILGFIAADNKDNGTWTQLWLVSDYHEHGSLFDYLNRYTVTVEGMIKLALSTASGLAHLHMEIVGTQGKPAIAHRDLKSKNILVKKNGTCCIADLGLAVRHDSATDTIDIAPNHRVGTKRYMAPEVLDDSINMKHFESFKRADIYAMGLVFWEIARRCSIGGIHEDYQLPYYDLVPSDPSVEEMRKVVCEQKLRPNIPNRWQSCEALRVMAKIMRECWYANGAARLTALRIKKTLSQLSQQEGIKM
Kind of series: Inhibition of ALK5 in mouse NIH/3T3 cells by smad binding element reporter based assay. It is filed as cell-based.

Series [3] is described as follows: Photostability of the compound assessed as compound remaining after exposure to sunlight. It is filed as physicochemical.
A short description of series [4]: Photostability of the compound assessed as compound degradation after exposure to sunlight. Conditions: read-out: Drug degradation. It is filed as physicochemical.
For a further series, the target named is T3, Activin receptor type-1B (Homo sapiens, UniProt P36896).
T3 sequence (P36896 whole entry): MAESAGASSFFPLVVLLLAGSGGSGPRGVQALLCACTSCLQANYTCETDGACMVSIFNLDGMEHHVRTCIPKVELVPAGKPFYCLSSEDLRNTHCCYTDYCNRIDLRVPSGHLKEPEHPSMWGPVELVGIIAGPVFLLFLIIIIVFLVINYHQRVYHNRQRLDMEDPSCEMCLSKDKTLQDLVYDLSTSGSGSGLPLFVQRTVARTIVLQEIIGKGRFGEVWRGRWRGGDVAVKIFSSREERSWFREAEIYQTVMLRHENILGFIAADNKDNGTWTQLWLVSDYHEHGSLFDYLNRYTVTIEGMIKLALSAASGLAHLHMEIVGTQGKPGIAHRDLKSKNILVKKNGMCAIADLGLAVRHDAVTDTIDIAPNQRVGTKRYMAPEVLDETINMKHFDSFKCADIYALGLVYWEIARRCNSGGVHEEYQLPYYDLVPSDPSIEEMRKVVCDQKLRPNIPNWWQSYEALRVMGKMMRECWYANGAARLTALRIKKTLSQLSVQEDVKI
Kind of series: Inhibition of ALK4.

For series [5], the target named is Activin receptor type-1-like (Homo sapiens, UniProt P37023). Kind of series: Inhibition of ALK1.
For series [6], the system named is Fibroblast. Kind of series: Inhibition of in TGFbeta-induced COL1A gene expression in human fibroblasts. It is filed as functional, cell-based.
In series [7] the test system is Fibroblast. The series can be described thus: Inhibition of in TGFbeta-induced CTGF gene expression in human fibroblasts. It is filed as functional, cell-based.
Series [8] relates to Fibroblast. The series can be described thus: Inhibition of in TGFbeta-induced FN1 gene expression in human fibroblasts. It is filed as functional, cell-based.
The test system of series [9] is Fibroblast. The series can be described thus: Inhibition of in TGFbeta-induced PAI1 gene expression in human fibroblasts. It is filed as functional, cell-based.
Series [10] concerns Fibroblast. The series can be described thus: Inhibition of in TGFbeta-induced TGFbeta1 gene expression in human fibroblasts. It is filed as functional, cell-based.
The test system of series [11] is Fibroblast. The series can be described thus: Inhibition of in TGFbeta-induced FSP1 gene expression in human fibroblasts. It is filed as functional, cell-based.
Series [12] concerns Fibroblast. The series can be described thus: Inhibition of in TGFbeta-induced alpha-SMA gene expression in human fibroblasts. It is filed as functional, cell-based.
The subject of series [13] is Fibroblast. The series can be described thus: Inhibition of in TGFbeta-induced SMAD2/3 phosphorylation in human fibroblasts. It is filed as functional, cell-based.
Series [14] concerns Rattus norvegicus. Kind of series: Inhibition of wound healing in rat wound repair model treated topically by measuring wound closure after 7 days. It is filed as functional, organism-based.
Series [15] concerns Rattus norvegicus. The series can be described thus: Inhibition of dermal injury-induced CLO1A gene expression in rat wound repair model treated topically after 7 days. It is filed as functional, organism-based.
The subject of series [16] is Rattus norvegicus. Kind of series: Inhibition of dermal injury-induced CTGF gene expression in rat wound repair model treated topically after 7 days. It is filed as functional, organism-based.
The test system of series [17] is Rattus norvegicus. Kind of series: Inhibition of dermal injury-induced FN1 gene expression in rat wound repair model treated topically after 7 days. It is filed as functional, organism-based.
The test system of series [18] is Rattus norvegicus. Kind of series: Inhibition of dermal injury-induced PAI1 gene expression in rat wound repair model treated topically after 7 days. It is filed as functional, organism-based.
In series [19] the test system is Rattus norvegicus. Kind of series: Inhibition of dermal injury-induced TGFbeta-1 gene expression in rat wound repair model treated topically after 7 days. It is filed as functional, organism-based.
Series [20] concerns Rattus norvegicus. The series can be described thus: Inhibition of dermal injury-induced FSP1 gene expression in rat wound repair model treated topically after 7 days. It is filed as functional, organism-based.
The test system of series [21] is Rattus norvegicus. Kind of series: Inhibition of dermal injury-induced alpha-SMA gene expression in rat wound repair model treated topically after 7 days. It is filed as functional, organism-based.
In series [22] the test system is Rattus norvegicus. Kind of series: Inhibition of dermal injury-induced new collagen synthesis in rat wound repair model at 1% treated topically after 7 days. It is filed as functional.

Molecules are shown by their SMILES. The source made the active and inactive calls. The calls are words filed in the database; no cut-off is given here.

Sequence of Activin receptor type-1-like (P37023 whole entry): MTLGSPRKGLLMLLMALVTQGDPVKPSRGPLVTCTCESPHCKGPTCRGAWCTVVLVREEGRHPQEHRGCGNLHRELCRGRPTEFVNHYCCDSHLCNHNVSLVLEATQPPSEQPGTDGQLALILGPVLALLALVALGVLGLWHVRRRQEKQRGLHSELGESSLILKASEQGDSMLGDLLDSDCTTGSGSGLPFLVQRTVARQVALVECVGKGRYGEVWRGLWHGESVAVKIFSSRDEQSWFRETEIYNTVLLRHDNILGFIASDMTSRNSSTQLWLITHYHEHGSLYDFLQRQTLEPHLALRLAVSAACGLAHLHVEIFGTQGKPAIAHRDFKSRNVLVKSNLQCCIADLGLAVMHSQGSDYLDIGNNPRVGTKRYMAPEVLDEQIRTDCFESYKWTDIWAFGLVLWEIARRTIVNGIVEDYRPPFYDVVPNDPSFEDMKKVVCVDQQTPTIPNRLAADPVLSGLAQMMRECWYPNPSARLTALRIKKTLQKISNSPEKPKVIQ

For the molecule `Cc1cccc(-n2nc(C)cc2-c2ccc3ncn(C)c(=O)c3c2)n1`, the IC50 on TGF-beta receptor type-1 [1] is 3 nM; on TGF-beta receptor type-1 [2], 695 nM.

`Cc1cccc(-c2n[nH]cc2-c2ccc3ncn(C)c(=O)c3c2)n1`: the Stability in series [3] is 32%. Besides, the degraded in series [4] was determined as 68%.

With `Cc1cccc(-n2ncc(C)c2-c2ccc3nc[nH]c(=O)c3c2)n1`, the IC50 is 1 nM against TGF-beta receptor type-1 [1] and 61 nM at TGF-beta receptor type-1 [2].

Regarding `C=Cn1cnc2ccc(-c3ccnn3-c3cccc(C)n3)cc2c1=O`, the figures for the IC50 against TGF-beta receptor type-1 [1] and on TGF-beta receptor type-1 [2] were 4 nM and 44 nM, respectively. Further, in series [3], the Stability turned out to be 100%.

On to `Cc1cccc(-n2nccc2-c2ccc3ncn(C)c(=O)c3c2)n1`, for which the IC50 was 13 nM at TGF-beta receptor type-1 [1], 59 nM against Activin receptor type-1B, more than 5000 nM in [5] and 211 nM on TGF-beta receptor type-1 [2]. For the same molecule, the Stability in series [3] is on record as 99.4%. For the same molecule, the inhibition entry in the series with Fibroblast [6], in the series on Fibroblast [7], with Fibroblast [8], with Fibroblast [9], with Fibroblast [10] and in the series on Fibroblast [11] was “Dose-dependent effect” each time. The inhibition entry in the series on Fibroblast [12], in the series on Fibroblast [13], with Rattus norvegicus [15], in the series on Rattus norvegicus [16], in the series with Rattus norvegicus [17] and in the series on Rattus norvegicus [18] was “Dose-dependent effect” each time. Further, the inhibition entry with Rattus norvegicus [19], in the series on Rattus norvegicus [20] and in the series on Rattus norvegicus [21] was “Dose-dependent effect” each time. The inhibition result in the series with Rattus norvegicus [14] is “inactive”. Further, the “inhibition (INH)” value with Rattus norvegicus [22] was 26%.

For `Cc1cccc(-n2nccc2-c2ccc3nc[nH]c(=O)c3c2)n1`, the figures for the 50% inhibitory concentration (IC50) against TGF-beta receptor type-1 [1] and at TGF-beta receptor type-1 [2] were 6 nM and 73 nM, respectively.

For the molecule `Cc1cccc(-n2ncc(C)c2-c2ccc3ncn(C)c(=O)c3c2)n1`, the 50% inhibitory concentration (IC50) on TGF-beta receptor type-1 [1] stood at 4 nM; at TGF-beta receptor type-1 [2], 135 nM. Further, the Stability in series [3] is reported as 99%.

`CCc1cnn(-c2cccc(C)n2)c1-c1ccc2nc[nH]c(=O)c2c1`: the IC50 against TGF-beta receptor type-1 [1] came to 2 nM; at TGF-beta receptor type-1 [2] it was 47 nM.

Turning to `Cc1cccc(-n2nc3c(c2-c2ccc4nc[nH]c(=O)c4c2)CCC3)n1`, the concentration for half-maximal inhibition (IC50) is 5 nM against TGF-beta receptor type-1 [1] and 46 nM on TGF-beta receptor type-1 [2]. In [3], the Stability came to 100%.

For `CCn1cnc2ccc(-c3ccnn3-c3cccc(C)n3)cc2c1=O`, the half-inhibitory concentration (IC50) was determined as 69 nM at TGF-beta receptor type-1 [1] and 708 nM at TGF-beta receptor type-1 [2]. The Stability in series [3] turned out to be 100%.

With `CCc1cc(-c2ccc3ncn(C)c(=O)c3c2)n(-c2cccc(C)n2)n1`, the IC50 against TGF-beta receptor type-1 [1] was 1 nM; on TGF-beta receptor type-1 [2] it was 274 nM.

The values are drawn from ChEMBL document CHEMBL2021874, “Discovery of a series of 2-(1H-pyrazol-1-yl)pyridines as ALK5 inhibitors with potential utility in the prevention of dermal scarring” (Bioorg Med Chem Lett, 2012).
